Results as given in patent US7312248B2, “Control of parasites in animals by the use of novel trifluoromethanesulfonanilide oxime ether derivatives” (Schering-Plough Animal Health Corporation, priority 2004, dated 2007).

Tests used:
[1] = test system: Brown Dog Tick (Rhipicephalus sanguineus); assay: Rapid screening protocol for topical application on brown dog ticks; format: in vivo; details: 48 h; Laboratory 2 F data
[2] = test system: Brown Dog Tick (Rhipicephalus sanguineus); assay: Dose response protocol for topical application on brown dog ticks (LD50); format: in vivo; details: 24 h mortality

| Compound | R. sanguineus Mortality (%) 48 h [1] | R. sanguineus LD50 [2] |
| --- | --- | --- |
| CC/C(=N\OCc1ccc(C(F)(F)F)cc1)c1cc(Cl)ccc1NS(=O)(=O)C(F)(F)F [Compound 9] | 95% | 2.7 μg/tick |
| CC/C(=N\OCc1ccc(Cl)cc1)c1cc(Cl)ccc1NS(=O)(=O)C(F)(F)F [Compound 11, N-{4-chloro-2-[1-(4-chlorobenzyloxyimino)propyl]phenyl}trifluoromethanesulfonamide] | 97% | 2.5 μg/tick |
